Measurements reported in PubChem BioAssay AID1671245.

Molecular target: Casein kinase I isoform epsilon (Homo sapiens) (UniProt P49674)
Assay: CSNK1E kinase inhibitors, dose response, biochemical, Z'-LYTE, FRET, direct format (AID 1671245)
Conditions: Z'-LYTE FRET kinase activity assay, recombinant CSNK1E

Chain of Casein kinase I isoform epsilon (Homo sapiens) (P49674 whole entry, looked up, canonical isoform): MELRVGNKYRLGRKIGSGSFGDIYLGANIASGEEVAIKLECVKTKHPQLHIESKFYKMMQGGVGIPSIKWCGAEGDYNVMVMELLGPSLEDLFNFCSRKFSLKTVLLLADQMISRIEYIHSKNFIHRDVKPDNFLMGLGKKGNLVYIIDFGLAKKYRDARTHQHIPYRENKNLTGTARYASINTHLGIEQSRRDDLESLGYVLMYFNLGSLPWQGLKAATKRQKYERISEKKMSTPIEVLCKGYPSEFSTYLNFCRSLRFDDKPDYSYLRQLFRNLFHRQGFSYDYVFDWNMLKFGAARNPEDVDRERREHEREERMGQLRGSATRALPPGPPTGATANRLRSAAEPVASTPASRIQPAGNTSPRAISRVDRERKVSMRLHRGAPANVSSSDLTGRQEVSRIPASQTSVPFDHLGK

Brc1c(Br)c(Br)c2n[nH]nc2c1Br
IC50: 4.83 µM
